Source: patent US10562878B2, “Cycloalkylamines as monoamine reuptake inhibitors” (Sunovion Pharmaceuticals Inc., priority 2006, dated 2020)
Structures can show the parent of a compound that is named as a salt. Where two headings read alike, the source gives them in different places.

Experiments:
mice [1] = assay: Mouse locomotor activity; assay type: in vivo
mice [2] = assay: Mouse tail suspension test; assay type: in vivo
[3] = molecular target: DA Transporter (DAT) sites in mouse brain (Mus musculus (Mouse), UniProt Q61327); assay: Ex vivo [3H] WIN 35428 binding to DAT sites in mouse brain after oral dosing; conditions: mice, 60 min after treatment
[4] = molecular target: 5-HT Transporter (SERT) sites in mouse brain (Mus musculus (Mouse), UniProt Q60857); assay: Ex vivo [3H] citalopram binding to SERT sites in mouse brain after oral dosing; conditions: mice, 60 min after treatment
[5] = molecular target: T1, Norepinephrine Transporter (NET) sites in mouse brain (Mus musculus (Mouse), UniProt O55192); conditions: mice, 60 min after treatment
[6] = molecular target: T1, Norepinephrine Transporter (NET) sites in mouse brain; assay: in vivo; conditions: po, read-out: NET % Transporter Occupancy
[7] = molecular target: human dopamine transporter (Homo sapiens (Human), UniProt Q01959); assay: Dopamine functional uptake assay, recombinant human transporter in CHO-K1 or HEK293 cells; assay type: cell-based; conditions: read-out: hDAT IC50
Sequence of human dopamine transporter (Q01959 whole entry): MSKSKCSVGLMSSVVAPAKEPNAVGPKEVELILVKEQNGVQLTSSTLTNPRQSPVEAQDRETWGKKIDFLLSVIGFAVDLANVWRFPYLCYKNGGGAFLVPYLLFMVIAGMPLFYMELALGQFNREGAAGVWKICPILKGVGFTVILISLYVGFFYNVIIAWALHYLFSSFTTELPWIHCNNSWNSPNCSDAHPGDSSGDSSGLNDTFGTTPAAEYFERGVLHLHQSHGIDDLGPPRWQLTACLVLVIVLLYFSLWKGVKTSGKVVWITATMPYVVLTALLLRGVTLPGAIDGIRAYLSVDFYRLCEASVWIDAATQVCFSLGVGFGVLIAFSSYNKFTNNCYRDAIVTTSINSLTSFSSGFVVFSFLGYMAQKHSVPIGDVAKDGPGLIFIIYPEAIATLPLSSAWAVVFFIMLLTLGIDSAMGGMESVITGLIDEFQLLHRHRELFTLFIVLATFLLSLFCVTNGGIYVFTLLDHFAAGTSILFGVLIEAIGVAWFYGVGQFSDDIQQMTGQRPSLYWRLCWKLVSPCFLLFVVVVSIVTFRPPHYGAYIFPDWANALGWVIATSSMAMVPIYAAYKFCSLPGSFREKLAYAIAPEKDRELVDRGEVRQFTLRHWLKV

[8] = molecular target: rat serotonin (5-HT) reuptake transporter (Rattus norvegicus (Rat), UniProt P31652); assay: Serotonin functional uptake assay, rat synaptosomes; assay type: biochemical; conditions: read-out: rSERT IC50
[9] = molecular target: rat dopamine reuptake transporter (Rattus norvegicus (Rat), UniProt P23977); assay: Dopamine functional uptake assay, rat striatal synaptosomes; assay type: biochemical; conditions: read-out: rDAT IC50
Rats = assay: Rat forced swim test; assay type: in vivo

Question: CNCC1(c2ccc(Cl)c(Cl)c2)CCCCC1 [Compound 75, 1-(1-(3,4-dichlorophenyl)cyclohexyl)-N-methylmethanamine (hydrochloride)] was tested. Which “Mouse Locomotor Activity Total Distance Traveled ± S.E.M.” value (mice [1]; 3 mg/kg PO) did it give?
Answer: 653.5 ± 48.4

Question: And the “Mouse Locomotor Activity Total Distance Traveled ± S.E.M.” value (mice [1]; 10 mg/kg PO)?
Answer: 608.8 ± 83.4

Question: And the “Mouse Locomotor Activity Total Distance Traveled ± S.E.M.” value (mice [1]; 30 mg/kg PO)?
Answer: 655.3 ± 117.7

Question: What about the “Mouse Tail Suspension Mean Immobility Time ± S.E.M.” value (mice [2]; 3 mg/kg PO) of the same compound?
Answer: 187.8 ± 9.6

Question: What about the “Mouse Tail Suspension Mean Immobility Time ± S.E.M.” value (mice [2]; 10 mg/kg PO) of the same compound?
Answer: 177.7 ± 5.8

Question: And the “Mouse Tail Suspension Mean Immobility Time ± S.E.M.” value (mice [2]; 30 mg/kg PO)?
Answer: 143.5 ± 5.8

Question: Which “DAT Mean Specific Binding ± S.E.M.” value ([3]; 1 mg/kg PO) does the source give for CN(C)C[C@]1(c2ccc3ccccc3c2)CCCC[C@H]1O (relative stereo) [164 E1, trans-2-((dimethylamino)methyl)-2-(naphthalen-2-yl)cyclohexanol] here?
Answer: 23574 ± 1313 dpm

Question: And the “DAT Mean Specific Binding ± S.E.M.” value ([3]; 3 mg/kg PO)?
Answer: 18002 ± 1516 dpm

Question: And the “DAT Mean Specific Binding ± S.E.M.” value ([3]; 10 mg/kg PO)?
Answer: 17727 ± 2871 dpm

Question: What about the “DAT Mean Specific Binding ± S.E.M.” value ([3]; 30 mg/kg PO) of the same compound?
Answer: 15630 ± 1085 dpm

Question: What about the receptor occupancy at 1 mg/kg ([3]; mouse, 1 mg/kg PO) of the same compound?
Answer: -11%

Question: And the receptor occupancy at 3 mg/kg ([3]; mouse, 3 mg/kg PO)?
Answer: 16%

Question: And the receptor occupancy at 10 mg/kg ([3]; mouse, 10 mg/kg PO)?
Answer: 17%

Question: What about the receptor occupancy at 30 mg/kg ([3]; mouse, 30 mg/kg PO) of the same compound?
Answer: 27%

Question: What about the “SERT Mean Specific Binding ± S.E.M.” value ([4]; 1 mg/kg PO) of the same compound?
Answer: 2796 ± 133 dpm

Question: And the “SERT Mean Specific Binding ± S.E.M.” value ([4]; 3 mg/kg PO)?
Answer: 2273 ± 74 dpm

Question: What about the “SERT Mean Specific Binding ± S.E.M.” value ([4]; 10 mg/kg PO) of the same compound?
Answer: 783 ± 61 dpm

Question: And the “SERT Mean Specific Binding ± S.E.M.” value ([4]; 30 mg/kg PO)?
Answer: 271 ± 50 dpm

Question: What about the receptor occupancy at 1 mg/kg ([4]; mouse, 1 mg/kg PO) of the same compound?
Answer: 20%

Question: And the receptor occupancy at 3 mg/kg ([4]; mouse, 3 mg/kg PO)?
Answer: 35%

Question: And the receptor occupancy at 10 mg/kg ([4]; mouse, 10 mg/kg PO)?
Answer: 78%

Question: And the receptor occupancy at 30 mg/kg ([4]; mouse, 30 mg/kg PO)?
Answer: 92%

Question: What about the “NET Mean Specific Binding ± S.E.M.” value ([5]; 1 mg/kg PO) of the same compound?
Answer: 1122 ± 58 dpm

Question: What about the “NET Mean Specific Binding ± S.E.M.” value ([5]; 3 mg/kg PO) of the same compound?
Answer: 1046 ± 23 dpm

Question: And the “NET Mean Specific Binding ± S.E.M.” value ([5]; 10 mg/kg PO)?
Answer: 903 ± 48 dpm

Question: And the “NET Mean Specific Binding ± S.E.M.” value ([5]; 30 mg/kg PO)?
Answer: 610 ± 59 dpm

Question: And the “Mouse Locomotor Activity Total Distance Traveled ± S.E.M.” value (mice [1]; 10 mg/kg PO)?
Answer: 210.3 ± 40.4

Question: And the “Mouse Tail Suspension Mean Immobility Time ± S.E.M.” value (mice [2]; 10 mg/kg PO)?
Answer: 162.1 ± 4.6

Question: And the “Mouse Tail Suspension Mean Immobility Time ± S.E.M.” value (mice [2]; 30 mg/kg PO)?
Answer: 155.3 ± 7.8

Question: What about the receptor occupancy at 1 mg/kg [6] of the same compound?
Answer: -8%

Question: And the receptor occupancy at 3 mg/kg [6]?
Answer: -1%

Question: What about the receptor occupancy at 10 mg/kg [6] of the same compound?
Answer: 13%

Question: What about the receptor occupancy at 30 mg/kg [6] of the same compound?
Answer: 41%

Question: For CN(C)C[C@]1(c2ccc(Cl)c(Cl)c2)CCC[C@H](O)C1 (single isomer, unassigned) [190 E2, Cis-3-(3,4-dichlorophenyl)-3-((dimethylamino)methyl)cyclohexanol], which IC50 [7] is on record?
Answer: 3 nM

Question: And the IC50 [8]?
Answer: 120 nM

Question: What about the IC50 [9] of the same compound?
Answer: 45 nM

Question: How did the IC50 [7] turn out when CN(C)C[C@]1(c2ccc3ccccc3c2)CC[C@](C)(O)CC1 [Compound 225, (1s,4s)-4-((dimethylamino)methyl)-1-methyl-4-(naphthalen-2-yl)cyclohexanol] was run?
Answer: 167 nM

Question: What about the “DAT Mean Specific Binding ± S.E.M.” value ([3]; 1 mg/kg PO) of the same compound?
Answer: 19787 ± 3338 dpm

Question: What about the “DAT Mean Specific Binding ± S.E.M.” value ([3]; 3 mg/kg PO) of the same compound?
Answer: 21666 ± 3698 dpm

Question: And the “DAT Mean Specific Binding ± S.E.M.” value ([3]; 10 mg/kg PO)?
Answer: 18872 ± 2775 dpm

Question: What about the “DAT Mean Specific Binding ± S.E.M.” value ([3]; 30 mg/kg PO) of the same compound?
Answer: 14618 ± 1209 dpm

Question: And the “SERT Mean Specific Binding ± S.E.M.” value ([4]; 1 mg/kg PO)?
Answer: 3842 ± 152 dpm

Question: What about the “SERT Mean Specific Binding ± S.E.M.” value ([4]; 3 mg/kg PO) of the same compound?
Answer: 2118 ± 139 dpm

Question: What about the “SERT Mean Specific Binding ± S.E.M.” value ([4]; 10 mg/kg PO) of the same compound?
Answer: 904 ± 35 dpm

Question: What about the “SERT Mean Specific Binding ± S.E.M.” value ([4]; 30 mg/kg PO) of the same compound?
Answer: 414 ± 37 dpm

Question: And the “NET Mean Specific Binding ± S.E.M.” value ([5]; 1 mg/kg PO)?
Answer: 1170 ± 68 dpm

Question: And the “NET Mean Specific Binding ± S.E.M.” value ([5]; 3 mg/kg PO)?
Answer: 813 ± 64 dpm

Question: And the “NET Mean Specific Binding ± S.E.M.” value ([5]; 10 mg/kg PO)?
Answer: 393 ± 21 dpm

Question: What about the “NET Mean Specific Binding ± S.E.M.” value ([5]; 30 mg/kg PO) of the same compound?
Answer: 230 ± 33 dpm

Question: What about the “Mouse Locomotor Activity Total Distance Traveled ± S.E.M.” value (mice [1]; 0.3 mg/kg PO) of the same compound?
Answer: 519.5 ± 56.4

Question: And the “Mouse Locomotor Activity Total Distance Traveled ± S.E.M.” value (mice [1]; 1 mg/kg PO)?
Answer: 423.4 ± 62.3

Question: And the “Mouse Tail Suspension Mean Immobility Time ± S.E.M.” value (mice [2]; 10 mg/kg PO)?
Answer: 137.8 ± 5.2

Question: What about the “Mouse Tail Suspension Mean Immobility Time ± S.E.M.” value (mice [2]; 30 mg/kg PO) of the same compound?
Answer: 136.3 ± 2.5

Question: And the “Rat Forced Swim Climbing (Means ± S.E.M.)” value (“Rat Forced Swim Climbing” for short) (Rats; 3 mg/kg PO)?
Answer: 8.4 ± 1.7

Question: And the “Rat Forced Swim Immobility (Means ± S.E.M.)” value (shortened to “Rat Forced Swim Immobility”) (Rats; 3 mg/kg PO)?
Answer: 50.8 ± 1.8

Question: And the “Rat Forced Swim Swimming (Means ± S.E.M.)” value (from here on “Rat Forced Swim Swimming”) (Rats; 3 mg/kg PO)?
Answer: 0.8 ± 0.3

Question: What about the “Rat Forced Swim Climbing” value (Rats; 10 mg/kg PO) of the same compound?
Answer: 11.1 ± 2.7

Question: And the “Rat Forced Swim Immobility” value (Rats; 10 mg/kg PO)?
Answer: 47.6 ± 3.0

Question: What about the “Rat Forced Swim Swimming” value (Rats; 10 mg/kg PO) of the same compound?
Answer: 1.2 ± 0.6

Question: And the “Rat Forced Swim Climbing” value (Rats; 30 mg/kg PO)?
Answer: 25.0 ± 4.6

Question: And the “Rat Forced Swim Immobility” value (Rats; 30 mg/kg PO)?
Answer: 33.4 ± 4.8

Question: And the “Rat Forced Swim Swimming” value (Rats; 30 mg/kg PO)?
Answer: 1.1 ± 0.5

Question: Which results are given for CCC(N)C1(c2ccc(Cl)c(Cl)c2)CCCCC1 (single isomer, unassigned) [17 E1, 1-(1-(3,4-dichlorophenyl)cyclohexyl)propan-1-amine]?
Answer: Mouse Locomotor Activity Total Distance Traveled ± S.E.M. (mice [1]; 3 mg/kg PO): 649.3 ± 78.4; Mouse Locomotor Activity Total Distance Traveled ± S.E.M. (mice [1]; 10 mg/kg PO): 478.3 ± 88.5; Mouse Locomotor Activity Total Distance Traveled ± S.E.M. (mice [1]; 30 mg/kg PO): 428.3 ± 120.6; Mouse Tail Suspension Mean Immobility Time ± S.E.M. (mice [2]; 3 mg/kg PO): 184.7 ± 9.0; Mouse Tail Suspension Mean Immobility Time ± S.E.M. (mice [2]; 10 mg/kg PO): 182.6 ± 4.1; Mouse Tail Suspension Mean Immobility Time ± S.E.M. (mice [2]; 30 mg/kg PO): 150.9 ± 7.8
